Source: ChEMBL document CHEMBL4706640, “Structure-Based Drug Design and Synthesis of PI3Kα-Selective Inhibitor (PF-06843195)” (J Med Chem, 2021)
Values after ≈ are worked out from the molar mass of the structure shown. Active and inactive are the calls of the source. The rule behind the calls is not given here.

Columns and labels:
[1] = Cmax in Wistar Han rat assessed as 2,2-difluoroethyl (3S)-3-{[2'-amino-5-fluoro-2-(morpholin-4-yl)-4,5'-bipyrimidin-6-yl]amino}-3-(hydroxymethyl)pyrrolidine-1-carboxylate level at […], po; format: ADME, organism-based; conditions: in vivo
[2] = Half life in human intestinal S9 fraction assessed as 2,2-difluoroethyl (3S)-3-{[2'-amino-5-fluoro-2-(morpholin-4-yl)-4,5'-bipyrimidin-6-yl]amino}-3-(hydroxymethyl)pyrrolidine-1-carboxylate level by enzymatic hydrolysis assay; format: ADME, subcellular, Intestine
[3] = AUC (0 to t) in Wistar Han rat assessed as 2,2-difluoroethyl (3S)-3-{[2'-amino-5-fluoro-2-(morpholin-4-yl)-4,5'-bipyrimidin-6-yl]amino}-3-(hydroxymethyl)pyrrolidine-1-carboxylate level at […], po; format: ADME, organism-based; conditions: in vivo
[4] = Kinetic solubility of compound at pH 7.4 after 24 hrs by LC/MS/MS analysis; format: physicochemical; conditions: buffer, read-out: Kinetic_solubility
MCF7 [5] = assay: Antitumor activity against human MCF7 cells xenografted in mouse model assessed as tumor growth inhibition; format: functional, cell-based
[6] = Volume of distribution at steady state in Wistar Han rat at 2.3 mg/kg, iv; format: ADME, organism-based; conditions: in vivo, read-out: Vdss
[7] = Plasma clearance in Wistar Han rat at 2.3 mg/kg, iv; format: ADME, organism-based
[8] = Tmax in Wistar Han rat assessed as 2,2-difluoroethyl (3S)-3-{[2'-amino-5-fluoro-2-(morpholin-4-yl)-4,5'-bipyrimidin-6-yl]amino}-3-(hydroxymethyl)pyrrolidine-1-carboxylate level at […], po; format: ADME, organism-based; conditions: in vivo
[9] = Oral bioavailability in Wistar Han rat at […]; format: ADME, organism-based; conditions: in vivo
MCF7 [10] = assay: Antitumor activity against human MCF7 cells xenografted in mouse model assessed as tumor growth regression in presence of fulvestrant and palbociclib; format: functional, cell-based
[11] = AUC (0 to t) in Wistar Han rat at 2.3 mg/kg, iv; format: ADME, organism-based; parameters: dose 2.3 mg/kg; conditions: in vivo
MDA-MB-361 = assay: Antitumor activity against human MDA-MB-361 cells xenografted in mouse model assessed as tumor growth inhibition; format: functional, cell-based
[12] = Half life in rat intestinal S9 fraction assessed as 2,2-difluoroethyl (3S)-3-{[2'-amino-5-fluoro-2-(morpholin-4-yl)-4,5'-bipyrimidin-6-yl]amino}-3-(hydroxymethyl)pyrrolidine-1-carboxylate level by enzymatic hydrolysis assay; format: ADME, subcellular, Intestine
[13] = Tmax in Wistar Han rat at […], po; format: ADME, organism-based; conditions: in vivo
[14] = Half life in Wistar Han rat at 2.3 mg/kg, iv; format: ADME, organism-based; conditions: in vivo
[15] = AUC (0 to t) in Wistar Han rat at […], po; format: ADME, organism-based; conditions: in vivo
MCF7 [16] = assay: Antitumor activity against human MCF7 cells xenografted in mouse model assessed as tumor growth regression in presence of fulvestrant; format: functional, cell-based
[17] = Cmax in Wistar Han rat at […], po; format: ADME, organism-based; conditions: in vivo
MCF7 [18] = assay: Antitumor activity against human MCF7 cells xenografted in mouse model assessed as tumor growth regression in presence of palbociclib; format: functional, cell-based
[19] = Thermodynamic solubility of compound at pH 7.4; format: physicochemical; conditions: buffer, read-out: Therm_solubility
[20] = AUC (0 to t) in Wistar Han rat assessed as 2,2-difluoroethyl (3S)-3-{[2'-amino-5-fluoro-2-(morpholin-4-yl)-4,5'-bipyrimidin-6-yl]amino}-3-(hydroxymethyl)pyrrolidine-1-carboxylate level at 2.3 mg/kg, iv; format: ADME, organism-based; parameters: dose 2.3 mg/kg; conditions: in vivo

`Nc1ncc(-c2nc(N3CCOCC3)nc(N[C@@]3(COP(=O)(O)O)CCN(C(=O)OCC(F)F)C3)c2F)cn1` gave a Cmax [1] of 290 ng/mL, a t1/2 [2] of 14 min and an AUCt [3] of 1500 ng·h/mL. For the same compound, the solubility kinetic at 24 h [4] was 310 µg/mL (≈ 0.536 mM), the TGI (MCF7 [5]) was “Active” and the Vd [6] was 0.34 L/kg. For the same compound, the clearance [7] was 89 mL/min/kg, the Tmax [8] was 120 min and the bioavailability [9] was 0.14%. For the same compound, the Activity (MCF7 [10]) was “Active”, the AUC(0-t) [11] was 430 ng·h/mL and the TGI (MDA-MB-361) was “Active”. The t1/2 [12] was 86 min, the Tmax [13] was 10.2 min and the half-life [14] was 16.8 min. For the same compound, the AUC(0-t) [15] was 2.9 ng·h/mL, the Activity (MCF7 [16]) was “Active” and the Cmax [17] was 4.3 ng/mL. For the same compound, the Activity (MCF7 [18]) was “Active”, the solubility thermodynamic [19] was 6200 µg/mL (≈ 10.7 mM) and the AUCt [20] was 900 ng·h/mL.
